# Reference: paper PMC6429710, “Structure–activity relationships in a series of antiplasmodial thieno[2,3-b]pyridines” (Malaria Journal, 2019)
# Key:
# HEK293T cells = assay: Cytotoxicity assay on HEK293 cells (PrestoBlue viability); assay type: cell-based, human; settings: cell viability, 48 h; mean of six determinations, range in brackets; read-out: IC50 [µM], HEK 293T
# Method: HEK293T cells were seeded into a solid black flat bottom 96 well plate (2.5 × 10^4 cells/well) in 200 μL Dulbecco Modified Eagle Medium (DMEM) supplemented with 10% fetal bovine serum and 1% Pen/Strep (final concentration of 100 U/mL Penicillin and 100 μg/mL Streptomycin). Cells were incubated at 37 °C under 5% CO2. After 18 h the supernatant was removed and fresh DMEM containing serial dilutions of compounds was added. Compounds were solubilized in DMSO (final DMSO concentration in HEK293T culture was 0.5%.) Wells containing 0.5% DMSO served as a negative control. Plates were incubated for further 48 h at 37 °C under 5% CO2. To monitor cell viability the supernatant was removed and cells were incubated with 200 μL 10% PrestoBlue (Invitrogen) in PBS at 37 °C. After 30 min fluorescence (λex = 560 nm, λem = 590 nm) was measured in an EnVision multilable plate reader (Perkin Elmer, integration time 0.1 s/well). Data points were plotted into Graphpad Prism, normalized to the DMSO control and IC50 values were calculated using nonlinear regression.
# PfGSK-3 = molecular target: T1, PfGSK-3 (Plasmodium falciparum, UniProt O77344); assay type: biochemical; settings: 15 µM ATP; mean of two determinations, range in brackets; read-out: IC50 [µM], PfGSK-3 (radiometric)
# T1 construct: 6xHis; made in house; host or cells: Escherichia coli C41
# T1 sequence (O77344 1-440): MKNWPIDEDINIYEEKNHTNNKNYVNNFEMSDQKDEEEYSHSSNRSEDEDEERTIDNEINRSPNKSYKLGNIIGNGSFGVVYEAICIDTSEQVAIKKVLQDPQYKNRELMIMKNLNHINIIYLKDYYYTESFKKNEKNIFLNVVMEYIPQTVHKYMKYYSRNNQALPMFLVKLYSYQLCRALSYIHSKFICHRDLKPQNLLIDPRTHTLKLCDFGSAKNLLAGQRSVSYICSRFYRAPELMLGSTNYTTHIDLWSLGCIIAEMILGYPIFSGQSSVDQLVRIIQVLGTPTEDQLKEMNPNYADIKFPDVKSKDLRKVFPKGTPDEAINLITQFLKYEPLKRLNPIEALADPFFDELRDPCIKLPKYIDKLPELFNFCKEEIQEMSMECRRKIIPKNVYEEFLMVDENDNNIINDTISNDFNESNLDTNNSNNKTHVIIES
# Method: Recombinant GST-PfGSK-His was expressed in Rosetta 2 (DE3) cells and purified on cobalt affinity resin as described previously. Recombinant PfGSK-3 ([…]) was assayed with 48 µM GS-1 peptide as a substrate, in 25 mM Tris–HCl pH 7.5, 10 mM MgCl2, 1 mM EGTA, 1 mM EDTA, 0.5 mg/mL BSA, 5 mM DTT, 2 µg/mL heparin, in the presence of 15 µM [γ-^32P] ATP (3000 Ci/mmol; 1 mCi/mL) (Perkin-Elmer, USA) in a final volume of 25 µL. After 30 min incubation at 30 °C, 8 µL aliquots were spotted onto 1 × 1 cm pieces of P81 phosphocellulose paper (Reaction Biology, Malvern, PA, USA) and 20 s later, the filters were washed five times (for at least 5 min each time) in a solution of 10 mL phosphoric acid/L water. Filters were rinsed in acetone and the dried filters and radioactivity was measured by Cherenkov counting. Blank values were subtracted and activities were expressed in percentage of the maximal activity, i.e. in the absence of inhibitors. Controls were performed with appropriate dilutions of dimethylsulfoxide.
smiles,measurement,setting,value
CN(C)CCN(C)c1ccc(-c2c(C#N)c(N)nc3sc(C(=O)c4cccc(Cl)c4)c(N)c23)c(Cl)c1 [4h],IC50,HEK293T cells,5.56 µM
same,IC50,PfGSK-3,0.184 µM
